In PubChem BioAssay AID1259411 (Chemical Carcinogenesis Research Information System (CCRIS), 2018):
Active and inactive are the calls of the source. The rule behind the calls is not given here.

Tested on: rodent carcinogenicity bioassays, tumor incidence
Test: CCRIS carcinogenicity studies
Summary of the method: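 NCI-built, expert-reviewed records of carcinogenicity and related test outcomes (mutagenicity, tumor promotion/inhibition) compiled from published and report sources, historical span 1985-2011, not updated.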

Measured: carcinogen call

Cc1nn(C)c(Oc2ccccc2)c1/C=N/OCc1ccc(C(=O)OC(C)(C)C)cc1
inactive: Species: Mouse, Strain/Sex: ICR (Crj:CD-1)/Female (50/Group), Route: Oral, Dose: 0, 25, 100, 400, 800 ppm (0; 2.4; 10.2; 41.4; 73.1 mg/kg/day) for 18 mo, study duration 18 mo, Dose: 0, 25, 100, 400, 800 ppm (0; 2.4; 10.2; 41.4; 73.1 mg/kg/day) for 18 mo, study duration 18 mo inactive; negative | Species: Mouse, Strain/Sex: ICR (Crj:CD-1)/Male (50/Group), Route: Oral, Dose: 0, 25, 100, 400, 800 ppm (0; 2.4; 9.5; 38.0; 69.6 mg/kg/day) for 18 mo, study duration 18 mo, Dose: 0, 25, 100, 400, 800 ppm (0; 2.4; 9.5; 38.0; 69.6 mg/kg/day) for 18 mo, study duration 18 mo inactive; negative | Species: Rat, Strain/Sex: CD/Female (50/Group), Route: Oral, Dose: 0, 10, 25, 75, 150 ppm of 97.2% fenpyroximate (0; 0.49; 1.21; 3.81; 8.01 mg/kg/day) for 104 wk, study duration 104 wk, Dose: 0, 10, 25, 75, 150 ppm of 97.2% fenpyroximate (0; 0.49; 1.21; 3.81; 8.01 mg/kg/day) for 104 wk, study duration 104 wk inactive; negative | Species: Rat, Strain/Sex: CD/Male (50/Group), Route: Oral, Dose: 0, 10, 25, 75, 150 ppm of 97.2% fenpyroximate (0; 0.40; 0.97; 3.00; 6.20 mg/kg/day) for 104 wk, study duration 104 wk, Dose: 0, 10, 25, 75, 150 ppm of 97.2% fenpyroximate (0; 0.40; 0.97; 3.00; 6.20 mg/kg/day) for 104 wk, study duration 104 wk inactive; negative

Nc1ccc(/C=C/c2ccc(N)c(S(=O)(=O)O)c2)c(S(=O)(=O)O)c1
inactive: Species: MOUSE, Strain/Sex: B6C3F1/FEMALE, Route: ORAL, Dose: 0, 6250, 12500 PPM IN DIET FOR 103 WK (STUDY DURATION: 2 YR), Dose: 0, 6250, 12500 PPM IN DIET FOR 103 WK (STUDY DURATION: 2 YR) inactive; negative | Species: MOUSE, Strain/Sex: B6C3F1/MALE, Route: ORAL, Dose: 0, 6250, 12500 PPM IN DIET FOR 103 WK (STUDY DURATION: 2 YR), Dose: 0, 6250, 12500 PPM IN DIET FOR 103 WK (STUDY DURATION: 2 YR) inactive; negative | Species: RAT, Strain/Sex: F344/FEMALE, Route: ORAL, Dose: 0, 12500, 25000 PPM IN DIET FOR 103 WK (STUDY DURATION: 2 YR), Dose: 0, 12500, 25000 PPM IN DIET FOR 103 WK (STUDY DURATION: 2 YR) inactive; negative | Species: RAT, Strain/Sex: F344/MALE, Route: ORAL, Dose: 0, 12500, 25000 PPM IN DIET FOR 103 WK (STUDY DURATION: 2 YR), Dose: 0, 12500, 25000 PPM IN DIET FOR 103 WK (STUDY DURATION: 2 YR) inactive; negative

CC/C(=C(/CC)c1ccc(O)cc1)c1ccc(O)cc1
active: Species: HAMSTER, Route: PRE-NATAL EXPOSURE, Tumor Site: Type of Lesion: UTERUS, ACCESSORY SEX ORGANS (M), VAGINA, CERVIX, Tumor Site: Type of Lesion: UTERUS, ACCESSORY SEX ORGANS (M), VAGINA, CERVIX active; positive | Species: HAMSTER, Route: SUBCUTANEOUS IMPLANT, Tumor Site: Type of Lesion: KIDNEY active; positive | Species: HAMSTER, Route: SUBCUTANEOUS, Tumor Site: Type of Lesion: KIDNEY active; positive | Species: HAMSTER, Strain/Sex: SYRIAN/MALE, Route: SUBCUTANEOUS IMPLANT, Dose: 0, 20 MG IN PELLETS IMPLANTED EVERY 2.5 MO FOR 9 MO (STUDY DURATION: 9 MO), Tumor Site: Type of Lesion: KIDNEY: TUMOR active; positive | Species: HUMAN, Route: DERMAL, Tumor Site: Type of Lesion: CERVIX OR VAGINA active; positive | Species: MONKEY, Route: SUBCUTANEOUS, Tumor Site: Type of Lesion: UTERUS active; positive | Species: MOUSE, Route: NEO-NATAL EXPOSURE, Tumor Site: Type of Lesion: CERVIX, VAGINA active; positive | Species: MOUSE, Route: ORAL, Tumor Site: Type of Lesion: MAMMARY GLAND, CERVIX, VAGINA, Tumor Site: Type of Lesion: MAMMARY GLAND, CERVIX, VAGINA active; positive | Species: MOUSE, Route: PRE-NATAL EXPOSURE, Tumor Site: Type of Lesion: CERVIX, VAGINA, OVARIES, Tumor Site: Type of Lesion: CERVIX, VAGINA, OVARIES active; positive | Species: MOUSE, Route: SUBCUTANEOUS IMPLANT, Tumor Site: Type of Lesion: TESTES, MAMMARY GLAND, LYMPHATIC SYSTEM, Tumor Site: Type of Lesion: TESTES, MAMMARY GLAND, LYMPHATIC SYSTEM active; positive | Species: MOUSE, Route: SUBCUTANEOUS, Tumor Site: Type of Lesion: MAMMARY GLAND, GENITAL TRACT, OVARIES, Tumor Site: Type of Lesion: MAMMARY GLAND, GENITAL TRACT, OVARIES active; positive | Species: MOUSE, Strain/Sex: C3H/FEMALE, Route: ORAL, Dose: 0, 2.5, 5, 10, 20, 40, 80, 160, 320, 640 PPB IN DIET (STUDY DURATION: 455 D), Dose: 0, 2.5, 5, 10, 20, 40, 80, 160, 320, 640 PPB IN DIET (STUDY DURATION: 455 D), Tumor Site: Type of Lesion: MAMMARY GLAND: ADENOCARCINOMA active; positive | Species: MOUSE, Strain/Sex: C57BL/6/XPA/P53/MALE,FEMALE (TRANSGENIC), Route: DIET, Dose: 0, 1500 PPB IN DIET FOR 39 WKS (STUDY DURATION: 39 WKS), Tumor Site: Type of Lesion: BONE: OSTEOSARCOMA (MALES ONLY), TESTICULAR INTERSTITIAL CELL ADENOMA (BENIGN), MALES active; positive in males only | Species: MOUSE, Strain/Sex: CD-1/FEMALE, Route: INTRAPERITONEAL, Dose: 0, 1 UG/G BW ADMINISTERED TO PREGNANT MICE AT 16 D AND 16 HR, 17 D, OR 17 D 16 HR POST CONCEPTION OR 2 UG/G BW AT 17 D 1, Tumor Site: Type of Lesion: PITUITARY GLAND: TUMOR active; positive | Species: RAT, Route: NEO-NATAL EXPOSURE, Tumor Site: Type of Lesion: ACCESSORY SEX ORGANS (M) active; positive | Species: RAT, Route: ORAL, Tumor Site: Type of Lesion: MAMMARY GLAND, PITUITARY GLAND active; positive | Species: RAT, Route: SUBCUTANEOUS IMPLANT, Tumor Site: Type of Lesion: MAMMARY GLAND, URINARY BLADDER active; positive | Species: RAT, Route: SUBCUTANEOUS, Tumor Site: Type of Lesion: MAMMARY GLAND, PITUITARY GLAND active; positive | Species: RAT, Strain/Sex: ACI/FEMALE, Route: SUBCUTANEOUS IMPLANT, Dose: 0, 1.25 MG/100 G ONCE IN A 20 MG PELLET AT AGES 75, 127 AND 177 D (STUDY DURATION: 347-365 D), Tumor Site: Type of Lesion: MAMMARY GLAND: ADENOCARCINOMA active; positive | Species: RAT, Strain/Sex: WISTAR/FEMALE, Route: SUBCUTANEOUS, Dose: 0, 0.1, 0.5 MG/KG TO MOTHERS ON D 18, 19 AND 20 OF GESTATION (STUDY DURATION: 2 YR), Dose: 0, 0.1, 0.5 MG/KG TO MOTHERS ON D 18, 19 AND 20 OF GESTATION (STUDY DURATION: 2 YR), Tumor Site: Type of Lesion: VAGINA: TUMOR active; positive | Species: RAT, Strain/Sex: WISTAR/FEMALE, Route: SUBCUTANEOUS, Dose: 0, 25, 50 MG/KG TO MOTHERS ON D 19 AND 20 OF GESTATION (STUDY DURATION: 2 YR), Dose: 0, 25, 50 MG/KG TO MOTHERS ON D 19 AND 20 OF GESTATION (STUDY DURATION: 2 YR), Tumor Site: Type of Lesion: VAGINA: TUMOR active; positive
significant in males at 1500 ppb only: Species: MOUSE, Strain/Sex: C57BL/6XPA/MALE,FEMALE (TRANSGENIC), Route: DIET, Dose: 0, 100, 300, 1500 PPB IN DIET FOR 39 WKS (STUDY DURATION: 39 WKS), Dose: 0, 100, 300, 1500 PPB IN DIET FOR 39 WKS (STUDY DURATION: 39 WKS), Tumor Site: Type of Lesion: PITUITARY: ADENOMA (BENIGN)
inactive: Species: MOUSE, Strain/Sex: C57BL/6/MALE,FEMALE (WILD TYPE), Route: DIET, Dose: 0, 1500 PPB IN DIET FOR 39 WKS (STUDY DURATION: 39 WKS) inactive; negative

O=NN1CCN(N=O)CC1
active: Species: RAT, Strain/Sex: F344/FEMALE, Route: INTRAVESICAL, Dose: 0, 374 MG (TOTAL DOSE) INJECTED INTO BLADDER 2/WK OVER 36 WK (STUDY DURATION: 102 WK), Tumor Site: Type of Lesion: NASAL CAVITY: TUMOR active; positive

Cc1ccc2c(c1)C1=Nc3ccccc3C3=Nc4ccccc4C(=N2)N31
active: Species: MOUSE, Strain/Sex: ALBINO/MALE, FEMALE, Route: DERMAL, Tumor Site: Type of Lesion: SKIN: TUMOR active; positive
